Data set [1] deals with sites associated to calcium channels labeled by ^3H-Diltiazem. Kind of data set: Binding to Ca++ channel sites labelled by 3H-Diltiazem in rat brain. As to conditions: rat brain cortex membranes; ^3H-d-cis Diltiazem 4 nM, 60' at 30°C; read-out: IC50 Uptake sites of Ca^++ channels labelled with ^3H-Diltiazem. How it is done:
(§1) The "binding" of the tested compounds to the sites associated to calcium channels labeled by ^3H-Nitrendipine, ^3H-Verapamil and ^3H-Diltiazem has been assayed in rat brain according to the method of Schoemaker H. et al. Eur. J. Pharmacol. 111, 273 (1985) and of Reynolds I.J. et al. Eur. J. Pharmacol. 95, 319 (1983).
(§2) Brain cortices are removed from decollated male CrI: CD (SD) BR rats weighing 250-300 g.
(§3) The tissues were homogenized in Tris-HCl buffer and centrifuged at 50000 x g for 10 minutes. The pellet was washed twice through a fresh buffer suspension and centrifuged at 50000 x g for 10 minutes.
(§4) After suspension of the precipitate in the incubation buffer the compounds under examination were added to the medium, starting from a concentration 10^-5 M. Incubation conditions were: ^3H-Nitrendipine (0.5 nM) x 60' at 30°C; ^3H-Verapamil (10 µM) x 20' at 37°C; and ^3H-d-cis Diltiazem (4 nM) x 60' at 30°C. Final volume was 1 ml. Incubation was stopped by rapid filtration under vacuum through GF/B (0.1% […]) fiber filters which were washed with cold incubation buffer (3 x 3 ml) using the system of filtration Brandel Cell Harvester. Filters were put in 8 ml of Optifluor (Packard) and the radioactivity bound to the membranes trapped by fibers counted by liquid scintillation spectrometer TRI-CARB 1900 CA (Packard). The counting efficiency was about 50%.
(§5) The percentage inhibition of the specific ^3H-ligand binding to its respective receptors was calculated for each concentration (mean of three incubates).
(§6) The competition curve, the slope of the curve and IC50^± standard deviation values (drug concentration that reduces specific ^3H-ligand binding to its respective receptors by 50% of its maximum value) were calculated by using the "Allfit" program (De Lean A. et al., Am. J. Physiol. 235, E97, 1978) running on an IBM 55-SH.

Data set [2] has as its target sites associated to calcium channels labeled by ^3H-Verapamil. Put plainly: Binding to Ca++ channel sites labelled by 3H-Verapamil in rat brain. The conditions noted are these: rat brain cortex membranes; ^3H-Verapamil (10 µM), 20' at 37°C; read-out: IC50 Uptake sites of Ca^++ channels labelled with ^3H-Verapamil. As to the method:
as §1, §2, §3, §4, §5, §6

The test system of the next data set is mice. Kind of data set: Assessment of behaviour and mortality in mice (Irwin's method). Format: in vivo. The conditions noted are these: for Death rate: dead/treated, 4 animals/dose; for Symptoms: n.e. = no effect, (*) = in connection with death rate only. How it is done:
The assessment of normal behaviour in mice was carried out following S. Irwin's method, Psychopharmacologia 13, 222 (1968). This method allows alterations in some behavioural, neurophysiologic and neurovegetative parameters to be detected, which are directly observable by the researcher. The study was conducted using male CrI: (CD-I)(ICR)BR mice (Charles River - Italy) weighing 22-25 g, following oral administration of the compounds suspended in carboxymethylcellulose (0.5% by weight in H2O) to groups of 4 animals/dose.
The animals were continuously kept under observation for five hours following treatment and twice a day in the subsequent five days. Mortality was also observed during the overall test period. The initial dose was 1000 mg/kg per os; lower doses were administered in case of death or if the initial dose brought about an excessive response.

Data set [3] concerns the target sites associated to calcium channels labeled by ^3H-Nitrendipine. Put plainly: Binding to Ca++ channel sites labelled by 3H-Nitrendipine in rat brain. As to conditions: rat brain cortex membranes; ^3H-Nitrendipine 0.5 nM, 60' at 30°C; inactive at 10^-5 M not tested higher; read-out: IC50 Uptake sites of Ca^++ channels labelled with ^3H-Nitrendipine. How it is done:
as §1, §2, §3, §4, §5, §6

For another data set, the system named is Rat portal vein. Put plainly: Rat portal vein: contractions evoked by high K+ concentrations. The conditions noted are these: at a concentration of 10 mg/ml. The text has this:
The effect of the compound on the contractions evoked by high K^+ concentrations in the rat portal vein has been tested according to Shetty S.S. et al., Europ. J. Pharm. 141, 485 (1989).

Data set [4] has as its system conscious spontaneously hypertensive rats (SHR). Kind of data set: Effect on blood pressure and heart rate in conscious SHR. The data set is classed as in vivo. As to conditions: oral 100 mg/kg, 1, 2 and 4 hours after administration. How it is done:
The effect of the substance has been tested after oral administration of 100 mg/kg to conscious spontaneously hypertensive rats (SHR). No changes of blood pressure and heart rate were observed 1, 2 and 4 hours after the administration. The experimental procedure was run according to Yeer T.T. et al, Life Sciences 22, 359 (1978).

As usually defined, the IC50 is the concentration that inhibits the measured activity by half. Take `CC(C)COC(=O)C[C@H](C[N+](C)(C)C)OC(=O)C(C)C` [ST 305]: the figures for the half-inhibitory concentration (IC50) in data set [1], in data set [2] and in data set [3] were greater than 10 µM, 3.5 µM and 33 µM, respectively. Also, in the data set on mice (dose 1000 (mg/kg per os)), the Death rate is reported as 0/4. Further, the Symptoms result in the data set with mice (dose 1000 (mg/kg per os)) was “n.e”.

For `CCCCOC(=O)C[C@H](C[N+](C)(C)C)OC(=O)CC(C)C` [ST 683], the figures for the IC50 in data set [1], in data set [2] and in data set [3] were 15 µM, 2.4 µM and greater than 10 µM, respectively. The figures for the Death rate in the data set on mice (dose 300 (mg/kg per os)), in the data set with mice (dose 600 (mg/kg per os)) and with mice (dose 1000 (mg/kg per os)) were 0/4, 2/4 and 4/4, respectively. Moreover, the Symptoms result is listed as “n.e” with mice (dose 300 (mg/kg per os)), “convulsions (*)” with mice (dose 600 (mg/kg per os)) and “convulsions (*)” in the data set on mice (dose 1000 (mg/kg per os)).

In the case of `CC(C)COC(=O)C[C@H](C[N+](C)(C)C)OC(=O)CC(C)C` [ST 684], the IC50 in data set [1] was 7.8 µM; in data set [2], 1.6 µM; in data set [3], greater than 10 µM. In addition, the Death rate with mice (dose 1000 (mg/kg per os)) is reported as 0/4. The Symptoms result with mice (dose 1000 (mg/kg per os)) is listed as “n.e”.

Consider `CCCCCCCOC(=O)C[C@H](C[N+](C)(C)C)OC(=O)CC(C)C` [ST 697], for which the 50% inhibitory concentration (IC50) was 0.5 µM in data set [1], 1.5 µM in data set [2] and greater than 10 µM in data set [3]. In addition, the Death rate in the data set on mice (dose 100 (mg/kg per os)) is 0/4; with mice (dose 300 (mg/kg per os)) it was 1/4; with mice (dose 600 (mg/kg per os)), 2/4; in the data set with mice (dose 1000 (mg/kg per os)) it was 4/4. In addition, the Symptoms entry is recorded as “n.e” with mice (dose 100 (mg/kg per os)), “convulsions (*)” in the data set with mice (dose 300 (mg/kg per os)), “convulsions (*)” in the data set on mice (dose 600 (mg/kg per os)) and “convulsions (*)” in the data set on mice (dose 1000 (mg/kg per os)).

On to `CCCCCCCCCCCOC(=O)C[C@H](C[N+](C)(C)C)OC(=O)C(C)C` [ST 712, Isobutyryl L-carnitine undecyl ester chloride], for which the half-inhibitory concentration (IC50) in data set [1] stood at 1.2 µM; in data set [2] it was 2.8 µM; in data set [3], 5.3 µM. In addition, the Death rate in the data set with mice (dose 1000 (mg/kg per os)) was 0/4. The Symptoms entry in the data set on mice (dose 1000 (mg/kg per os)) was “n.e”.

Turning to `CCCCCCCOC(=O)C[C@H](C[N+](C)(C)C)OC(=O)C(C)C` [ST 713, isobutyryl L-carnitine heptyl ester chloride], the figures for the IC50 in data set [1], in data set [2] and in data set [3] were 1.3 µM, 1.2 µM and greater than 10 µM, respectively. In addition, the Death rate is given as 0/4 in the data set with mice (dose 100 (mg/kg per os)), 2/4 in the data set on mice (dose 300 (mg/kg per os)), 3/4 in the data set with mice (dose 600 (mg/kg per os)) and 4/4 with mice (dose 1000 (mg/kg per os)). Further, the Symptoms result in the data set with mice (dose 100 (mg/kg per os)) is “n.e”; in the data set with mice (dose 300 (mg/kg per os)), “convulsions (*)”; with mice (dose 600 (mg/kg per os)), “convulsions (*)”; in the data set with mice (dose 1000 (mg/kg per os)), “convulsions (*)”.

As to `CCCCCCCCCCCOC(=O)C[C@H](C[N+](C)(C)C)OC(=O)CC(C)C` [ST 722, isovaleryl L-carnitine undecyl ester chloride], the IC50 in data set [1] was 1.4 µM. The “effect on the contractions evoked by high K^+ concentrations in the rat portal vein” value in the data set on Rat portal vein was “inactive”. Further, the IC50 in data set [2] turned out to be 0.38 µM. Besides, in the data set with mice (dose 1000 (mg/kg per os)), the Death rate is listed as 0/4 and the Symptoms entry was “salivation, diarrhea”. Further, in data set [3], the IC50 came to 1.6 µM. Moreover, in data set [4], the “changes of blood pressure” value was “No changes” and the “changes of heart rate” value is on record as “No changes”.

Consider `CCCCCCCOC(=O)C[C@H](C[N+](C)(C)C)OC(C)=O` [ST 904, acetyl L-carnitine heptyl ester chloride], for which the IC50 in data set [1] was greater than 10 µM; in data set [2], 3.2 µM; in data set [3], greater than 10 µM. Besides, the Death rate was 0/4 in the data set with mice (dose 300 (mg/kg per os)), 2/4 in the data set with mice (dose 600 (mg/kg per os)) and 4/4 in the data set with mice (dose 1000 (mg/kg per os)). Further, the Symptoms entry in the data set with mice (dose 300 (mg/kg per os)) was “n.e”; in the data set on mice (dose 600 (mg/kg per os)), “convulsions (*)”; with mice (dose 1000 (mg/kg per os)), “convulsions (*)”.

The values above are taken from patent publication EP0559625B1, “Esters of L-carnitine and acyl L-carnitine endowed with muscle relaxant activityselective on gastrointestinal tract and pharmaceutical compositions containing same” (Sigma-Tau Industrie Farmaceutiche Riunite S.p.A., priority 1992, dated 1993).
